In paper PMC8746528, “Novel Substituted Purine Isosteres: Synthesis, Structure-Activity Relationships and Cytotoxic Activity Evaluation” (Molecules, 2021):

Columns and labels:
[1] = system: a variety of cancer cell lines; parameters: method as in PMID 27720292; details: cited from earlier work
[2] = system: normal human fibroblasts (WI-38); experiment: MTT cytotoxicity towards normal fibroblasts; format: cell-based; details: for Selectivity Index HCT116: SI = IC50 non cancer cell (WI-38)/IC50 cancer cell (HCT116); for Selectivity Index PC-3: SI = IC50 non cancer cell (WI-38)/IC50 cancer cell (PC-3); for cytotoxicity to normal cells in words / IC50: WI-38; for IC50: MTT, normal human fibroblasts
Protocol: (§1) The human HCT116 colon cancer cell line and PC-3 prostate cancer cell line were obtained from the American Type Cell Culture (ATCC, Bethesda, Md). Both cell lines were grown in 75 cm^2 culture flasks at 37 °C in 5% CO2 using Roswell Park Memorial Institute 1640 medium (RPMI 1640, Gibco) and Dulbecco’s modified Eagle’s medium F/12 (DMEM/F-12, Gibco), respectively, containing 10% fetal bovine serum (FBS, Gibco). To test the inhibitory activities of compounds using a cell-based assay, MTT assay was performed for cell viability, as described previously. Briefly, HCT116 cells were plated at a density of 1500 per well, while PC-3 cells were plated at a density of 750 per well in a 96-well plate. After 24 h, cells were treated with the indicated compounds in a dose-dependent manner for 72 h and 96 h (all tested compounds provided clear solutions). MTT [3-(4,5-dimethylthiazol-2-yl)-2,5-diphenyltetrazolium bromide] (Sigma M-5655) was added at a final concentration of 0.5 mg/mL directly to each well for 4 h at 37 °C. The medium was aspirated, and the blue MTT formazan precipitate was dissolved in dimethyl sulfoxide (DMSO). Absorbance was determined in a Powerwave microplate spectrophotometer (Biotek Instruments, Inc.) at 540 nm. Viable cell numbers were determined by tetrazolium conversion to its formazan dye. The IC50 was calculated by Microsoft Excel equation and confirmed by GraphPad Prism (7.0). Each experiment was performed in triplicate and mean values ± SD are reported.
Figure 1 Dose-response curves for the administration of 14b, 26b, 35b on HCT116, PC-3 and WI-38 cells, as assessed by the MTT assay. Results are expressed as a percentage of controls. Statistical analysis was performed in triplicate determination at p < 0.05.

[3] = system: PC-3 prostate cancer cell line; experiment: MTT cell viability assay, PC-3; format: cell-based; details: Homo sapiens, treatment 72 h and 96 h, mean ± SD of three experiments
Protocol: as §1

[4] = system: HCT116 colon cancer cell line; experiment: MTT cell viability assay, HCT116; format: cell-based; details: Homo sapiens, HCT-116, treatment 72 h and 96 h, mean ± SD of three experiments
Protocol: as §1

[5] = system: PC-3 cells; experiment: Annexin V-7AAD apoptosis assay; format: cell-based, human; details: PC-3, 72 h, compound at its IC50, AnnexinV-7AAD staining; vehicle 3.5%
Protocol: (§2) For cell cycle analysis, cell culture supernatants and attached cells were collected, centrifuged, washed in PBS, fixed in 50% ethanol and stained with an RNase-containing propidium iodide solution (50 μg/mL) (all reagents from Sigma). For cell apoptosis assay, cells were harvested and stained with Annexin V binding buffer, Annexin V–FITC and 7-AAD (Annexin V-FITC Apoptosis Detection Kit, BD Systems). DNA content was analyzed on a BD Accuri C6 Flow Cytometer using the BD CSampler software (BD Biosciences, USA). Non-apoptotic events were used to calculate the percentage of cells distributed in each phase. A p value < 0.05 was considered to be statistically significant (Student’s t-test).

[6] = system: PC-3 cells; experiment: DNA staining (propidium iodide) and flow cytometric cell cycle analysis; format: cell-based, human; details: PC-3, 72 h; for Cell cycle phase distribution G0/G1 / Cell cycle phase distribution G2/M / Cell cycle phase distribution S: compound at its IC50
Protocol: as §2

Compound | IC50 values [1] | Selectivity Index HCT116 [2] | Selectivity Index PC-3 [2] | cytotoxicity to normal cells in words [2] | IC50 [2] [nM] | selectivity index ([2]; normal cell line WI-38 vs both cancer cell lines) | IC50 [3] [nM] | IC50 [4] [nM] | apoptotic nuclei [5] [%] | cell-cycle perturbation in words [6] | Cell cycle phase distribution G0/G1 [6] | Cell cycle phase distribution G2/M [6] | Cell cycle phase distribution S [6] | melting point [°C]
COc1cc(Nc2nccc3c(-c4ccccc4)n[nH]c23)cc(OC)c1OC [3-phenyl-7-(3,4,5-trimethoxyphenyl)aminopyrazolo[3,4-c]pyridine] | medium to high nM range | – | – | – | – | – | – | – | – | – | – | – | – | –
Fc1cccc(-c2c[nH]c3c(Nc4ccccc4)nccc23)c1 [14b, 3-(3-Fluorophenyl)-Ν-phenyl-1H-pyrrolo[2,3-c]pyridin-7-amine] | – | 222 | 363 | practically non-toxic against the normal cell line | 20000 ± 400 | higher than 200 | 55 ± 15 | 90 ± 10 | 26.5 | statistically significant accumulation of PC-3 cells at G2/M phase | 48.7 (±0.6) % | 30.8 (±0.8) % | 20.5 (±1.4) % | 168 to 169
Fc1cccc(-c2c[nH]c3c(Nc4ccccc4)ncnc23)c1 [26b, 7-(3-Fluorophenyl)-Ν-phenyl-5H-pyrrolo[3,2-d]pyrimidin-4-amine] | – | 8.3 | 8.7 | non-cytotoxic to the normal cell line | 17000 ± 1500 | – | 1950 ± 50 | 2050 ± 50 | 17.7 | – | 54.4 (±1.1) % | 24.9 (±1.6) % | 20.7 (±02.7) % | > 250
Fc1cccc(-c2n[nH]c3c(Nc4ccccc4)ncnc23)c1 [35b, 3-(3-Fluorophenyl)-Ν-phenyl-1H-pyrazolo[4,3-d]pyrimidin-7-amine] | – | 5.3 | 22.2 | non-cytotoxic to the normal cell line | 12200 ± 1000 | – | 550 ± 50 | 2300 ± 200 | 11.5 | – | 58.9 (±0.6) % | 24.9 (±2.4) % | 16.3 (±1.8) % | 237 to 238
